# Assay results: US20260193272A1, “SELENIUM CONTAINING HETEROCYCLE COMPOUNDS AND USE THEREOF” (HELIOS HUAMING BIOPHARMA CO., LTD., priority 2022, published 2026)
# Target: T1, PAD4 enzyme (Homo sapiens, UniProt Q9UM07)
# T1 construct: PAD4 enzyme was diluted to 30 nM in Assay Buffer
# Experiment: In-vitro measurement for enzymatic PAD4 citrullination inhibition activity (ammonia release)
# Format: biochemical
# Details: read-out: IC50 of inhibition enzymatic activity of PAD4 (Colorimetric assays, Nature Chemical Biology, 2015, 11: 189-191)
# Description: Citrullination was detected via ammonia release based on published methodology (Nature Chemical Biology, 2015, 11: 189-191).
# PAD4 enzyme was diluted to 30 nM in Assay Buffer (100 mM HEPES, 50 mM NaCl, 2 mM DTT, 0.6 mg/ml BSA, pH 8) and added to wells containing various concentrations of compound or DMSO vehicle (0.8% final) in a high-volume black 96-well plate (Greiner). Following a 60-min preincubation at 27° C., the reaction was initiated by the addition of substrate (3 mM BAEE in 100 mM HEPES, 50 mM NaCl, […] CaCl2, 2 mM DTT, pH 8). The reaction was stopped after 90 min by the addition of stop/detection buffer containing 50 mM EDTA, 2.6 mM o-phthalaldehyde and 2.6 mM DTT. Assays were incubated at 27° C. for 120 min before measuring fluorescence (λex 410/λem 476) on an Envision plate reader (PerkinElmer). After which IC50 values were calculated using GraphPad Prism 8.0.
# T1 sequence (Q9UM07 whole entry): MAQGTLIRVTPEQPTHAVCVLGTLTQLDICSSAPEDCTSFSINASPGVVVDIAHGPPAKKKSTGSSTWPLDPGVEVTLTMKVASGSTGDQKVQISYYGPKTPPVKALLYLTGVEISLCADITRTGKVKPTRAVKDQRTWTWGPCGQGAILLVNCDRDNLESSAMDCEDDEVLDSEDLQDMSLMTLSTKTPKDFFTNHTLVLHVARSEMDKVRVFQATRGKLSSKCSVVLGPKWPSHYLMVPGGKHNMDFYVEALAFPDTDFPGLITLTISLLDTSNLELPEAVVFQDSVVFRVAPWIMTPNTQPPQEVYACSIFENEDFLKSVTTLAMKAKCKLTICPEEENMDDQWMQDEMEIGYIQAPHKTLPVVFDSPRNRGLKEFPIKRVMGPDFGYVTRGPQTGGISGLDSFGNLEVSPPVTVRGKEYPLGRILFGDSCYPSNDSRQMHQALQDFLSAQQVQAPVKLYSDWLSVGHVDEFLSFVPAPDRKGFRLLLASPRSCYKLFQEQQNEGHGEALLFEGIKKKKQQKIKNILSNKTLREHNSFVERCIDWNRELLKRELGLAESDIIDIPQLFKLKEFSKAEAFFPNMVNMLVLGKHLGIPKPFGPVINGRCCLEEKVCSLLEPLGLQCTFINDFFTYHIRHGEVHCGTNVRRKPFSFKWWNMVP
row,SMILES,IC50 [µM]
1,COc1cc(C(=O)N2C[C@H](N)CC[C@@H]2C)cc2nc(-c3cc4[se]c(-c5ccccn5)cc4n3CC3CC3)n(C)c12 [HH-62],0.05 to 0.1
2,COc1cc(C(=O)N2C[C@H](N)C[C@@H](F)C2)cc2nc(-c3cc4[se]c(-c5ccccn5)cc4n3CC3CC3)n(C)c12 [HH-63],0.1 to 0.5
3,COc1cc(C(=O)N2C[C@H](N)C[C@@H](F)C2)cc2nc(-c3cc4cc[se]c4n3CC3CC3)n(C)c12 [HH-64],0.05 to 0.1
4,COc1cc(C(=O)N2C[C@H](N)CC[C@@H]2C)cc2nc(-c3cc4cc[se]c4n3CC3CC3)n(C)c12 [HH-65],0.05 to 0.1
5,COc1cc(C(=O)N[C@@H]2CC[C@H](C)NC2)cc2nc(-c3cc4cc[se]c4n3CC3CC3)n(C)c12 [HH-66],0.1 to 0.5
6,COc1cc(C(=O)N2C[C@H](N)CC[C@@H]2C)cn2nc(-c3cc4[se]c(C)nc4n3CC3CC3)c(C)c12 [HH-67],0.1 to 0.5
7,COc1cc(C(=O)N2C[C@H]3CC[C@@H]2[C@@H]3N)cn2nc(-c3cc4[se]c(C)nc4n3CC3CC3)c(C)c12 [HH-68],0.05 to 0.1
8,COc1cc(C(=O)N2C[C@H](N)C[C@@H](F)C2)cn2nc(-c3cc4[se]c(C)nc4n3CC3CC3)c(C)c12 [HH-69],0.05 to 0.1
9,Cc1c(-c2cc3[se]c(-c4ccccn4)nc3n2CC2CC2)nn2cc(C(=O)N3C[C@H](N)CC[C@@H]3C)ccc12 [HH-70],0.1 to 0.5

# Second part, the compound after the results:
row,IC50 [µM],SMILES
1,0.1 to 0.5,Cc1c(-c2cc3[se]c(-c4ccccn4)nc3n2CC2CC2)nn2cc(C(=O)N3C[C@H](N)C[C@@H](F)C3)ccc12 [HH-71]
2,0.1 to 0.5,Cc1c(-c2cc3[se]c(-c4ccccn4)nc3n2CC2CC2)nn2cc(C(=O)N3C[C@H]4CC[C@@H]3[C@@H]4N)ccc12 [HH-72]
3,0.05 to 0.1,Cc1nc2c(cc(-c3nc4cc(C(=O)N5C[C@H](N)C[C@@H](F)C5)ccn4c3C)n2CC2CC2)[se]1 [HH-73]
4,0.05 to 0.1,Cc1nc2c(cc(-c3nc4cc(C(=O)N5C[C@H]6CC[C@@H]5[C@@H]6N)ccn4c3C)n2CC2CC2)[se]1 [HH-74]
5,≤ 0.05,Cc1nc2c(cc(-c3nc4cc(C(=O)N5C[C@H](N)CC[C@@H]5C)ccn4c3C)n2CC2CC2)[se]1 [HH-75]
